Several values for one entry are separate records, joined by “and”; a condition that tells them apart may be missing. Equal values may be shown once. Inconclusive results and toxic doses are left out.

The values that follow come from PubChem BioAssay AID256 (DTP/NCI, 2004).

The test has as its system CD2F1 mice, L1210 leukemia ip, survival T/C. Briefly: NCI In Vivo Anticancer Drug Screen. Data for tumor model L1210 Leukemia (intraperitoneal) in CD2F1 (CDF1) mice. The following applies: higher = longer survival. The gist of the method: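 In this screen, transplantable tumors were grown in mice given either the compound or its vehicle. Results were expressed as the treated measurement relative to the control measurement.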

Setting [1] is: endpoint: mean survival time, dose: 3.13 mg/kg/injection, schedule: Q01DX009 (ip), vehicle: saline with Tween-80.
The mark [2] stands for this setting: endpoint: mean survival time, dose: 12.5 mg/kg/injection, schedule: Q01DX001 (ip), vehicle: saline with Tween-80.
[3] abbreviates: endpoint: mean survival time, dose: 25.0 mg/kg/injection, schedule: Q01DX001 (ip), vehicle: saline with Tween-80.
[4] abbreviates: endpoint: mean survival time, dose: 100.0 mg/kg/injection, schedule: Q01DX009 (ip), vehicle: saline with Tween-80.
Where [5] appears, read: endpoint: mean survival time, dose: 100.0 mg/kg/injection, schedule: Q04DX002 (ip), vehicle: saline with Tween-80.
[6] abbreviates: endpoint: mean survival time, dose: 100.0 mg/kg/injection, schedule: Q04DX003 (ip), vehicle: saline with Tween-80.
The mark [7] stands for this setting: endpoint: mean survival time, dose: 200.0 mg/kg/injection, schedule: Q01DX009 (ip), vehicle: saline with Tween-80.
Where [8] appears, read: endpoint: mean survival time, dose: 200.0 mg/kg/injection, schedule: Q04DX003 (ip), vehicle: saline with Tween-80.
Setting [9] is: endpoint: mean survival time, dose: 400.0 mg/kg/injection, schedule: Q01DX009 (ip), vehicle: saline with Tween-80.
The mark [10] stands for this setting: endpoint: mean survival time, dose: 400.0 mg/kg/injection, schedule: Q04DX003 (ip), vehicle: saline with Tween-80.
Where [11] appears, read: endpoint: mean survival time, dose: 50.0 mg/kg/injection, schedule: Q04DX002 (ip), vehicle: saline with Tween-80.
Setting [12] is: endpoint: mean survival time, dose: 25.0 mg/kg/injection, schedule: Q04DX003 (ip), vehicle: saline with Tween-80.

Consider `COc1cccnc1/C=N/NC(N)=S`, for which the T/C runs as follows: under setting [1], 118 % of control; (endpoint: mean survival time, dose: 5.54 mg/kg/injection, schedule: Q01DX001 (ip), vehicle: saline with Tween-80) 103 % of control; (endpoint: mean survival time, dose: 5.54 mg/kg/injection, schedule: Q01DX009 (ip), vehicle: saline with Tween-80) 200 % of control; (endpoint: mean survival time, dose: 5.54 mg/kg/injection, schedule: Q04DX001 (ip), vehicle: saline with Tween-80) 102 % of control; (endpoint: mean survival time, dose: 6.25 mg/kg/injection, schedule: Q04DX002 (ip), vehicle: saline with Tween-80) 104 % of control; (endpoint: mean survival time, dose: 8.32 mg/kg/injection, schedule: Q01DX001 (ip), vehicle: saline with Tween-80) 105 % of control. Further, the T/C runs as follows: (endpoint: mean survival time, dose: 8.32 mg/kg/injection, schedule: Q01DX009 (ip), vehicle: saline with Tween-80) 162 % of control; (endpoint: mean survival time, dose: 8.32 mg/kg/injection, schedule: Q04DX001 (ip), vehicle: saline with Tween-80) 105 % of control; under setting [2], 109 % of control; (endpoint: mean survival time, dose: 12.5 mg/kg/injection, schedule: Q01DX009 (ip), vehicle: saline with Tween-80) 152 % of control; (endpoint: mean survival time, dose: 12.5 mg/kg/injection, schedule: Q04DX001 (ip), vehicle: saline with Tween-80) 111 % of control; (endpoint: mean survival time, dose: 12.5 mg/kg/injection, schedule: Q04DX002 (ip), vehicle: saline with Tween-80) 104 % of control. The T/C (endpoint: mean survival time, dose: 18.8 mg/kg/injection, schedule: Q01DX001 (ip), vehicle: saline with Tween-80) is 109 % of control and the T/C (endpoint: mean survival time, dose: 18.8 mg/kg/injection, schedule: Q04DX001 (ip), vehicle: saline with Tween-80) is 105 % of control.

Take `O=C1NC2CC3CC(C2)CC1C3`: the T/C by setting is: (endpoint: mean survival time, dose: 12.5 mg/kg/injection, schedule: Q04DX003 (ip), vehicle: alcohol) 100 % of control; (endpoint: mean survival time, dose: 25.0 mg/kg/injection, schedule: Q04DX003 (ip), vehicle: alcohol) 92 % of control; (endpoint: mean survival time, dose: 50.0 mg/kg/injection, schedule: Q04DX003 (ip), vehicle: alcohol) 97 % of control.

`CCCCCCCCCC(=O)NC(=S)Nc1c(C)cccc1C`: the T/C is, setting by setting: under setting [3], 95 % of control; (endpoint: mean survival time, dose: 50.0 mg/kg/injection, schedule: Q01DX001 (ip), vehicle: saline with Tween-80) 95 % of control; (endpoint: mean survival time, dose: 100.0 mg/kg/injection, schedule: Q01DX001 (ip), vehicle: saline with Tween-80) 92 % of control; under setting [4], 92 % of control and 109 % of control; under setting [5], 92 % of control and 96 % of control; under setting [6], 98 % of control. The T/C was 91 % of control and 92 % of control (endpoint: mean survival time, dose: 200.0 mg/kg/injection, schedule: Q01DX001 (ip), vehicle: saline with Tween-80); 89 % of control and 98 % of control under setting [7]; 98 % of control and 100 % of control (endpoint: mean survival time, dose: 200.0 mg/kg/injection, schedule: Q04DX002 (ip), vehicle: saline with Tween-80); 95 % of control under setting [8]; 88 % of control (endpoint: mean survival time, dose: 400.0 mg/kg/injection, schedule: Q01DX001 (ip), vehicle: saline with Tween-80); 106 % of control under setting [9]. For the same compound, the T/C (endpoint: mean survival time, dose: 400.0 mg/kg/injection, schedule: Q04DX002 (ip), vehicle: saline with Tween-80) was 91 % of control and 96 % of control; the T/C under setting [10] was 90 % of control.

With `COc1ccc(CCC(=O)O)cc1OC`, the T/C is 96 % of control under setting [4]; 98 % of control under setting [6]; 97 % of control under setting [7]; 96 % of control under setting [8]; 92 % of control under setting [9]; 104 % of control under setting [10].

On to `O=C1C2CCN(CC2)C1CN1CCC2(CC1)C(=O)NCN2c1ccccc1` (centres undefined), for which the T/C reads like this: under setting [11], 93 % of control; under setting [5], 112 % of control.

In the case of `c1ccc(-c2ccc(-c3nnn4ccccc34)cc2)cc1`, the T/C is 107 % of control (endpoint: mean survival time, dose: 100.0 mg/kg/injection, schedule: Q01DX001 (ip), vehicle: saline); 86 % of control (endpoint: mean survival time, dose: 200.0 mg/kg/injection, schedule: Q01DX001 (ip), vehicle: saline); 95 % of control (endpoint: mean survival time, dose: 400.0 mg/kg/injection, schedule: Q01DX001 (ip), vehicle: saline).

`O=C(CNC(=O)Nc1cccc([N+](=O)[O-])c1)N/N=C/c1cc(Br)ccc1O`: the T/C (endpoint: mean survival time, dose: 50.0 mg/kg/injection, schedule: Q01DX009 (ip), vehicle: saline with Tween-80) is 92 % of control; the T/C under setting [4] is 88 % of control; the T/C under setting [7] was 88 % of control.

Turning to `NC1CCCCC1N.O=C([O-])c1ccc(N=Nc2cccc([N+](=O)[O-])c2)cc1[O-].[Pt+4]`, the T/C is 105 % of control and 109 % of control (endpoint: median survival time, dose: 3.12 mg/kg/injection, schedule: Q04DX003 (ip), vehicle: saline with Tween-80); 102 % of control and 110 % of control (endpoint: median survival time, dose: 6.25 mg/kg/injection, schedule: Q04DX003 (ip), vehicle: saline with Tween-80); 113 % of control (endpoint: median survival time, dose: 12.5 mg/kg/injection, schedule: Q04DX003 (ip), vehicle: saline with Tween-80); 116 % of control and 123 % of control (endpoint: median survival time, dose: 25.0 mg/kg/injection, schedule: Q04DX003 (ip), vehicle: saline with Tween-80); 123 % of control (endpoint: median survival time, dose: 50.0 mg/kg/injection, schedule: Q04DX003 (ip), vehicle: saline with Tween-80); 156 % of control (endpoint: median survival time, dose: 100.0 mg/kg/injection, schedule: Q04DX003 (ip), vehicle: saline with Tween-80). In addition, the T/C (endpoint: median survival time, dose: 200.0 mg/kg/injection, schedule: Q04DX003 (ip), vehicle: saline with Tween-80) was 166 % of control and 313 % of control.

Regarding `CCc1cccc([N+](=O)[O-])c1CC`, the T/C under setting [12] is 97 % of control; the T/C (endpoint: mean survival time, dose: 50.0 mg/kg/injection, schedule: Q04DX003 (ip), vehicle: saline with Tween-80) was 95 % of control; the T/C under setting [6] was 100 % of control and 105 % of control.

Turning to `O=C(O)C1CCCCC1C(=O)O.[NH-]C1CCCCC1[NH-].[Pt+2]` (centres undefined), the T/C was 106 % of control (endpoint: mean survival time, dose: 3.13 mg/kg/injection, schedule: Q04DX003 (ip), vehicle: other); 106 % of control (endpoint: mean survival time, dose: 6.25 mg/kg/injection, schedule: Q04DX003 (ip), vehicle: other); 116 % of control (endpoint: mean survival time, dose: 12.5 mg/kg/injection, schedule: Q04DX003 (ip), vehicle: other); 187 % of control (endpoint: mean survival time, dose: 100.0 mg/kg/injection, schedule: Q04DX003 (ip), vehicle: other); 168 % of control (endpoint: mean survival time, dose: 200.0 mg/kg/injection, schedule: Q04DX003 (ip), vehicle: other).

For the compound `CCC(C)OP(=S)(S)OC(C)CC.[Zn+2]` (centres undefined), the T/C by setting is: (endpoint: mean survival time, dose: 0.75 mg/kg/injection, schedule: Q01DX009 (ip), vehicle: saline with Tween-80) 88 % of control and 90 % of control; (endpoint: mean survival time, dose: 1.5 mg/kg/injection, schedule: Q01DX009 (ip), vehicle: saline with Tween-80) 103 % of control; (endpoint: mean survival time, dose: 3.0 mg/kg/injection, schedule: Q01DX009 (ip), vehicle: saline with Tween-80) 88 % of control and 92 % of control; under setting [1], 86 % of control and 88 % of control; (endpoint: mean survival time, dose: 6.25 mg/kg/injection, schedule: Q04DX003 (ip), vehicle: saline with Tween-80) 93 % of control; under setting [2], 101 % of control. The T/C was 95 % of control (endpoint: mean survival time, dose: 12.5 mg/kg/injection, schedule: Q04DX003 (ip), vehicle: saline with Tween-80); 100 % of control under setting [3]; 94 % of control and 100 % of control (endpoint: mean survival time, dose: 25.0 mg/kg/injection, schedule: Q04DX002 (ip), vehicle: saline with Tween-80); 97 % of control under setting [12]; 120 % of control and 94 % of control under setting [11].

For the compound `CCOC1CC(C)C=CO1` (centres undefined), the T/C (endpoint: mean survival time, dose: 100.0 mg/kg/injection, schedule: Q01DX001 (ip), vehicle: saline + alcohol) was 108 % of control; the T/C (endpoint: mean survival time, dose: 200.0 mg/kg/injection, schedule: Q01DX001 (ip), vehicle: saline + alcohol) is 104 % of control; the T/C (endpoint: mean survival time, dose: 400.0 mg/kg/injection, schedule: Q01DX001 (ip), vehicle: saline + alcohol) was 96 % of control.

Turning to `CS/C([S-])=N/N=C/c1ccccn1.[Cl][Pt+]`, the T/C is 94 % of control under setting [6] and 100 % of control under setting [8].

Regarding `OCC1CC2c3[nH]c4ccccc4c3CCN2C1` (centres undefined), the T/C (endpoint: mean survival time, dose: 20.0 mg/kg/injection, schedule: Q01DX001 (ip), vehicle: saline with Tween-80) is 95 % of control; the T/C (endpoint: mean survival time, dose: 40.0 mg/kg/injection, schedule: Q01DX001 (ip), vehicle: saline with Tween-80) was 90 % of control; the T/C (endpoint: mean survival time, dose: 80.0 mg/kg/injection, schedule: Q01DX001 (ip), vehicle: saline with Tween-80) was 93 % of control.
